What was measured:
Format in all cases: in vivo
[1] = system: ducksalad (Heteranthera limosa); assay: Test B flooded paddy test; details: 250 g ai/ha, Flood; visual rating on scale of 0 to 100 where 0 is no effect and 100 is complete control; 13 to 15 d after treatment
Summary of the method: (§1)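 Plants at the 2-leaf stage were flooded to 3 cm above soil, and test compounds were applied directly into the paddy water, which was held at that depth throughout. After 13 to 15 d in a greenhouse, injury was rated visually against untreated controls on a 0–100 scale (0 no effect, 100 complete control).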

rice (Oryza sativa) = assay: Test B flooded paddy test; details: 250 g ai/ha, Flood; visual rating on scale of 0 to 100 where 0 is no effect and 100 is complete control; 13 to 15 d after treatment
Summary of the method: as §1

[2] = system: sedge, umbrella (small-flower umbrella sedge, Cyperus difformis); assay: Test B flooded paddy test; details: 250 g ai/ha, Flood; visual rating on scale of 0 to 100 where 0 is no effect and 100 is complete control; 13 to 15 d after treatment
Summary of the method: as §1

[3] = system: barnyardgrass (Echinochloa crus-galli); assay: Test B flooded paddy test; details: 250 g ai/ha, Flood; visual rating on scale of 0 to 100 where 0 is no effect and 100 is complete control; 13 to 15 d after treatment
Summary of the method: as §1

[4] = system: ragweed (common ragweed, Ambrosia elatior); assay: Test A greenhouse herbicide test, pre- and postemergence; details: for Ragweed plant response rating: 0 is no effect, 100 is complete control
Summary of the method: (§2)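 Seeds sown in loam–sand blend got a preemergence directed soil spray of compound in non-phytotoxic solvent with surfactant. Postemergence treatment was given at 2–10 cm, one- to two-leaf stage. After ~10 d in greenhouse, injury was rated visually vs untreated controls, 0 (no effect) to 100 (complete control).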

kochia (Kochia scoparia) = assay: as above; details: for Kochia plant response rating: 0 is no effect, 100 is complete control
Summary of the method: as §2

corn (Zea mays) = assay: as above; details: Postemergence; for Corn plant response rating: 1000 g ai/ha, 0 is no effect, 100 is complete control
Summary of the method: as §2

[5] = system: foxtail, giant (giant foxtail, Setaria faberii); assay: as above; details: for Foxtail, Giant plant response rating: 0 is no effect, 100 is complete control
Summary of the method: as §2

[6] = system: pigweed (Amaranthus retroflexus); assay: as above; details: for Pigweed plant response rating: 0 is no effect, 100 is complete control
Summary of the method: as §2

[7] = system: ryegrass, Italian (Italian ryegrass, Lolium multiflorum); assay: as above; details: for Ryegrass, Italian plant response rating: 0 is no effect, 100 is complete control
Summary of the method: as §2

[8] = system: barnyardgrass (Echinochloa crus-galli); assay: as above; details: for Barnyardgrass plant response rating: 0 is no effect, 100 is complete control
Summary of the method: as §2

[9] = system: wheat (Triticum aestivum); assay: as above; details: Postemergence; for Wheat plant response rating: 1000 g ai/ha, 0 is no effect, 100 is complete control
Summary of the method: as §2

[10] = system: blackgrass (Alopecurus myosuroides); assay: Test A greenhouse herbicide test, postemergence; details: for Blackgrass plant response rating: 1000 g ai/ha, 0 is no effect, 100 is complete control
Summary of the method: (§3)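 Plants grown in loam soil/sand blend pots were treated postemergence at 2 to 10 cm height, one- to two-leaf stage, with formulated test chemicals. After approximately 10 d in a greenhouse, injury was rated visually against untreated controls on a 0 to 100 scale (0 no effect, 100 complete control).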

[11] = system: galium (catchweed bedstraw, Galium aparine); assay: Test A greenhouse herbicide test, postemergence; details: for Galium plant response rating: 1000 g ai/ha, 0 is no effect, 100 is complete control
Summary of the method: as §3

[12] = Postemergence, 125 g ai/ha, 0 to 100 scale, 0 no effect, 100 complete control
[13] = Postemergence, 500 g ai/ha, visual rating after approx. 10 d, 0 to 100 scale (0 no effect, 100 complete control)
[14] = Preemergence, 125 g ai/ha, visual injury rating, 0 to 100 scale (0 no effect, 100 complete control), approx. 10 d
[15] = Preemergence, 500 g ai/ha, 0 to 100 scale where 0 is no effect and 100 is complete control
[16] = 125 g ai/ha, 0 to 100 scale, 0 no effect, 100 complete control
[17] = 500 g ai/ha, visual rating after approx. 10 d, 0 to 100 scale (0 no effect, 100 complete control)
[18] = Postemergence, 1000 g ai/ha, 0 to 100 scale
[19] = Preemergence, 1000 g ai/ha, 0 to 100 scale, 0 no effect, 100 complete control

COC(=O)Cn1nc(C)c(O)c(-c2cccc3ccccc23)c1=O [Compound 172]
90: Plant response rating, Foxtail, Giant [5, 15]
0: Plant response rating, Ducksalad [1] | Plant response rating, Rice (rice (Oryza sativa)) | Plant response rating, Sedge, Umbrella [2] | Plant response rating, Barnyardgrass [3] | Plant response rating, Ragweed [4, 12] | Plant response rating, Ragweed [4, 13] | Plant response rating, Ragweed [4, 14] | Plant response rating, Ragweed [4, 15] | Plant response rating, Kochia (kochia (Kochia scoparia); [12]) | Plant response rating, Kochia (kochia (Kochia scoparia); [14]) | Plant response rating, Kochia (kochia (Kochia scoparia); [15]) | Plant response rating, Corn (corn (Zea mays); [16]) | Plant response rating, Corn (corn (Zea mays); [17]) | Plant response rating, Pigweed [6, 12] | Plant response rating, Pigweed [6, 14] | Plant response rating, Pigweed [6, 15] | Plant response rating, Ryegrass, Italian [7, 14]
20: Plant response rating, Kochia (kochia (Kochia scoparia); [13]) | Plant response rating, Ryegrass, Italian [7, 12] | Plant response rating, Ryegrass, Italian [7, 15] | Plant response rating, Barnyardgrass [8, 14] | Plant response rating, Wheat [9, 16] | Plant response rating, Wheat [9, 17] | Plant response rating, Blackgrass [10, 16] | Plant response rating, Galium [11, 16]
80: Plant response rating, Foxtail, Giant [5, 13]
60: Plant response rating, Foxtail, Giant [5, 14] | Plant response rating, Ryegrass, Italian [7, 13]
30: Plant response rating, Pigweed [6, 13] | Plant response rating, Blackgrass [10, 17]
40: Plant response rating, Foxtail, Giant [5, 12] | Plant response rating, Barnyardgrass [8, 12] | Plant response rating, Galium [11, 17]
70: Plant response rating, Barnyardgrass [8, 13]
50: Plant response rating, Barnyardgrass [8, 15]

Cc1n[nH]c(=O)c(-c2cccc3ccccc23)c1OC(F)F [Compound 175]
60: Plant response rating, Pigweed [6, 15]
30: Plant response rating, Ryegrass, Italian [7, 13]
20: Plant response rating, Ragweed [4, 15] | Plant response rating, Kochia (kochia (Kochia scoparia); [15]) | Plant response rating, Corn (corn (Zea mays); [17]) | Plant response rating, Ryegrass, Italian [7, 12] | Plant response rating, Ryegrass, Italian [7, 14] | Plant response rating, Ryegrass, Italian [7, 15] | Plant response rating, Wheat [9, 17] | Plant response rating, Blackgrass [10, 17]
0: Plant response rating, Ducksalad [1] | Plant response rating, Rice (rice (Oryza sativa)) | Plant response rating, Sedge, Umbrella [2] | Plant response rating, Barnyardgrass [3] | Plant response rating, Ragweed [4, 12] | Plant response rating, Ragweed [4, 13] | Plant response rating, Ragweed [4, 14] | Plant response rating, Kochia (kochia (Kochia scoparia); [12]) | Plant response rating, Kochia (kochia (Kochia scoparia); [13]) | Plant response rating, Kochia (kochia (Kochia scoparia); [14]) | Plant response rating, Corn (corn (Zea mays); [16]) | Plant response rating, Foxtail, Giant [5, 12] | Plant response rating, Foxtail, Giant [5, 13] | Plant response rating, Foxtail, Giant [5, 14] | Plant response rating, Foxtail, Giant [5, 15] | Plant response rating, Pigweed [6, 12] | Plant response rating, Pigweed [6, 13] | Plant response rating, Pigweed [6, 14] | Plant response rating, Barnyardgrass [8, 12] | Plant response rating, Barnyardgrass [8, 13] | Plant response rating, Barnyardgrass [8, 14] | Plant response rating, Barnyardgrass [8, 15] | Plant response rating, Wheat [9, 16] | Plant response rating, Blackgrass [10, 16] | Plant response rating, Galium [11, 16] | Plant response rating, Galium [11, 17]

Cc1ccc2ccccc2c1-c1c(O)c([N+](=O)[O-])nn(C)c1=O [Compound 177]
0: Plant response rating, Ducksalad [1] | Plant response rating, Rice (rice (Oryza sativa)) | Plant response rating, Sedge, Umbrella [2] | Plant response rating, Barnyardgrass [3] | Plant response rating, Ragweed [4, 12] | Plant response rating, Ragweed [4, 13] | Plant response rating, Ragweed [4, 14] | Plant response rating, Ragweed [4, 15] | Plant response rating, Kochia (kochia (Kochia scoparia); [12]) | Plant response rating, Kochia (kochia (Kochia scoparia); [13]) | Plant response rating, Kochia (kochia (Kochia scoparia); [14]) | Plant response rating, Kochia (kochia (Kochia scoparia); [15]) | Plant response rating, Corn (corn (Zea mays); [16]) | Plant response rating, Corn (corn (Zea mays); [17]) | Plant response rating, Foxtail, Giant [5, 12] | Plant response rating, Foxtail, Giant [5, 13] | Plant response rating, Foxtail, Giant [5, 14] | Plant response rating, Foxtail, Giant [5, 15] | Plant response rating, Pigweed [6, 12] | Plant response rating, Pigweed [6, 13] | Plant response rating, Pigweed [6, 14] | Plant response rating, Pigweed [6, 15] | Plant response rating, Ryegrass, Italian [7, 12] | Plant response rating, Ryegrass, Italian [7, 13] | Plant response rating, Ryegrass, Italian [7, 14] | Plant response rating, Ryegrass, Italian [7, 15] | Plant response rating, Barnyardgrass [8, 12] | Plant response rating, Barnyardgrass [8, 13] | Plant response rating, Barnyardgrass [8, 14] | Plant response rating, Barnyardgrass [8, 15] | Plant response rating, Wheat [9, 16] | Plant response rating, Wheat [9, 17] | Plant response rating, Blackgrass [10, 16] | Plant response rating, Blackgrass [10, 17] | Plant response rating, Galium [11, 16] | Plant response rating, Galium [11, 17]

Cc1nn(C)c(=O)c(-c2cccc3ccccc23)c1OCC=Cc1ccccc1 [Compound 180]
0: Plant response rating, Ducksalad [1] | Plant response rating, Rice (rice (Oryza sativa)) | Plant response rating, Sedge, Umbrella [2] | Plant response rating, Barnyardgrass [3] | Ragweed plant response rating [4, 18] | Plant response rating, Kochia (kochia (Kochia scoparia); [19]) | Corn plant response rating (corn (Zea mays); 0 to 100 scale) | Foxtail, Giant plant response rating [5, 18] | Barnyardgrass plant response rating [8, 18] | Plant response rating, Barnyardgrass [8, 19] | Wheat plant response rating ([9]; 0 to 100 scale)
30: Blackgrass plant response rating ([10]; 0 to 100 scale)
70: Ryegrass, Italian plant response rating [7, 18]
50: Pigweed plant response rating [6, 18] | Plant response rating, Ryegrass, Italian [7, 19]
10: Plant response rating, Foxtail, Giant [5, 19]
40: Plant response rating, Ragweed [4, 19] | Kochia plant response rating (kochia (Kochia scoparia); [18]) | Plant response rating, Pigweed [6, 19]
80: Galium plant response rating ([11]; 0 to 100 scale)

Cc1nn(C)c(=O)c(-c2cccc3ccccc23)c1OC(=O)C=Cc1ccccc1 [Compound 183]
100: Ryegrass, Italian plant response rating [7, 18]
80: Plant response rating, Ragweed [4, 19] | Blackgrass plant response rating ([10]; 0 to 100 scale)
40: Barnyardgrass plant response rating [8, 18] | Plant response rating, Barnyardgrass [8, 19]
0: Plant response rating, Ducksalad [1] | Plant response rating, Rice (rice (Oryza sativa)) | Plant response rating, Sedge, Umbrella [2] | Plant response rating, Barnyardgrass [3] | Wheat plant response rating ([9]; 0 to 100 scale)
10: Corn plant response rating (corn (Zea mays); 0 to 100 scale)
90: Kochia plant response rating (kochia (Kochia scoparia); [18]) | Pigweed plant response rating [6, 18] | Plant response rating, Pigweed [6, 19] | Plant response rating, Ryegrass, Italian [7, 19] | Galium plant response rating ([11]; 0 to 100 scale)
60: Plant response rating, Foxtail, Giant [5, 19]
70: Ragweed plant response rating [4, 18] | Plant response rating, Kochia (kochia (Kochia scoparia); [19]) | Foxtail, Giant plant response rating [5, 18]

Cc1nn(C)c(=O)c(-c2cccc3ccccc23)c1OCC(=O)c1ccccc1 [Compound 184]
80: Kochia plant response rating (kochia (Kochia scoparia); [18]) | Pigweed plant response rating [6, 18] | Ryegrass, Italian plant response rating [7, 18]
90: Plant response rating, Pigweed [6, 19] | Plant response rating, Ryegrass, Italian [7, 19] | Galium plant response rating ([11]; 0 to 100 scale)
20: Plant response rating, Kochia (kochia (Kochia scoparia); [19]) | Foxtail, Giant plant response rating [5, 18] | Barnyardgrass plant response rating [8, 18]
10: Plant response rating, Barnyardgrass [8, 19]
30: Ragweed plant response rating [4, 18] | Plant response rating, Foxtail, Giant [5, 19] | Blackgrass plant response rating ([10]; 0 to 100 scale)
0: Plant response rating, Ducksalad [1] | Plant response rating, Rice (rice (Oryza sativa)) | Plant response rating, Sedge, Umbrella [2] | Plant response rating, Barnyardgrass [3] | Corn plant response rating (corn (Zea mays); 0 to 100 scale) | Wheat plant response rating ([9]; 0 to 100 scale)
70: Plant response rating, Ragweed [4, 19]

— patent publication US10597388B2, “Pyridazinone herbicides” (FMC CORPORATION, priority 2014, dated 2020)
